According to US7511123B2, “Immuno-interactive fragments of the alpha-C subunit of inhibin” (Prince Henry's Institute of Medical Research, priority 1999, dated 2009):

Columns and labels:
As #128 [1] = assay: Solid phase assay (Assay 1): biotinylated peptides binding to As #128; set-up: species or system sheep; key: +++++ major contribution; + minor contribution; details: relative contribution
In short: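 The 31 biotinylated peptides were captured on streptavidin-coated wells for 2 h at room temperature, then incubated with ovine antiserum #41 or #128 for 2 h at room temperature. Bound antiserum was detected with HRP-labelled anti-ovine IgG and a colorimetric substrate read spectrophotometrically; the signal is proportional to peptide binding.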

As #41 [2] = assay: RIA (Assay 2): competition with iodinated inhibin for As #41; assay type: binding, sheep
In short: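 Graded doses of peptide or hr-inhibin standard competed with iodinated human recombinant 30 kDa inhibin tracer for the sheep antiserum at a set dilution, overnight at 4°C. Bound tracer was precipitated with goat anti-sheep IgG and gamma-counted. ED50 is the dose producing 50% loss of tracer binding.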

As #1989 = assay: RIA (Assay 2): competition with iodinated inhibin for As #1989; assay type: binding, rabbit
In short: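 Radioimmunoassay measuring how well peptides compete with iodinated 30 kDa human recombinant inhibin tracer for binding to antiserum #1989. Graded doses of peptide, iodinated inhibin and diluted antiserum were incubated overnight at 4° C. Antibody-bound tracer was precipitated with goat anti-sheep IgG serum and counted in a gamma counter. The ED50, the peptide concentration halving tracer binding, indicated affinity.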

As #41 [3] = assay: Competitive 2-site assay (Assay 3), approach (b); assay type: binding, sheep; details: biotinylated peptide pools or peptides incubated with iodinated As #41
Text: This assay was developed to establish the relative importance of the individual peptides and peptide pools (identified as epitopes in Assays 1 and 2) in the sandwich antibody format used in the IFMA with As #128 as capture antibody and As #41 as detection antibody. Two approaches (a and b) were considered, Approach (a) explores the cross-reaction of peptides with inhibin for the immobilized As #128 while Approach (b) assesses their cross-reaction with inhibin for As #41.
Approach (b). In this approach, the competition of peptides with the As #41 antiserum using the sandwich antibody format was assessed. Hr-Inhibin was initially incubated with the As #128 coated wells for 1 hour at room temperature. The biotinylated peptide pools and/or individual peptides were incubated together with iodinated As #41 for 1 hour and then added to the inhibin bound As #128 coated plates and incubated for 2 hours at room temperature. Plates were then washed to remove any unbound material and the resulting activity was measured in the gamma counter.

As #128 [4] = assay: Two-site assay design: peptides pre-incubated with As #128 coated plate; assay type: binding, sheep; details: non-biotinylated peptides 0.1-1 micromolar
Procedure: On the other hand, the IFMA design is based on the total amount of inhibin bound which is a combination of both antibody affinity and concentration. In order to establish to what extent epitopes to these peptides contribute to the overall IFMA, the following two-site assay designs were used.
(i) Peptides #5, #20 and #30 (0, 0.1-1 micromolar) were incubated with the As #128 coated plate for 1.5 hours at RT and the wells washed. The highest dose of peptide used was saturating.
(ii) Hr-Inhibin was then added as a saturating or near saturating dose to the As #128 coated plate and incubated for 2 hours at room temperature and the plate washed.
(iii) Biotinylated As #41 was added to the above wells and incubated for 2 hours at RT. Plates were then washed and counted.

As #41 [5] = assay: Two-site assay design variation: biotinylated #41 pre-incubated with peptide; assay type: binding, sheep; details: non-biotinylated peptides 0.1-1.0 micromolar
Procedure: (iv) In a variation to the above design, biotinylated #41 was pre-incubated with peptide (0.1-1.0 micromolar) for 1.5 hours at room temperature and then added to the As #128 coated plate pre-bound with inhibin as for (i)-(iii). […] Combination of peptide #5 and #30 led to 74% decrease.

As#41 = assay: Sandwich assay with As#41 as both coating and labeled antibody, no inhibin; assay type: binding, sheep; details: peptide added to both coating and labeled As#41
Text: It has not been established if the same antibodies are present in As #128.

R1 [6] = assay: Solid phase binding of Set 2 peptides to R1; set-up: species or system mouse; key: +++; ΦΦΦ strong effect; +, Φ weak effect; details: Set 2 biotinylated peptides 24 micromoles/L
Procedure: (§1) The binding of the 41 biotinylated peptides as set forth in Table 7 (peptide set 2) to the mouse monoclonal antibodies (PO# series) was assessed as follows:
(§2) a) Assay 1 (solid phase assay). The assay was undertaken as outlined in assay 1 of Example 2. Biotinylated peptides (24 micromoles/L) were initially bound to streptavidin-coated plates. Mab (at an appropriate dilution to give a detectable response, 1:1000, 1:10000 dilution of the culture medium) was then added and incubated for 1.5 hr. The amount of bound Mab was determined using horseradish peroxidase-bound anti-mouse IgG serum and enzyme activity detected at 450-630 nm using an ELISA plate reader.

PO-6 = assay: Solid phase binding of Set 2 peptides to PO-6; set-up: species or system mouse; key: +++; ΦΦΦ strong effect; +, Φ weak effect; details: Set 2 biotinylated peptides 24 micromoles/L
Procedure: as §1, §2

PO-22 [7] = assay: Solid phase binding of Set 2 peptides to PO-22; set-up: species or system mouse; key: +++; ΦΦΦ strong effect; +, Φ weak effect; details: Set 2 biotinylated peptides 24 micromoles/L
Procedure: as §1, §2

PO-22 [8] = assay: RIA of Set 2 peptides with PO-22; assay type: binding, mouse; details: Set 2 biotinylated peptides 0.8 and 0.08 micromoles/L
Procedure: (§3) The binding of the 41 biotinylated peptides as set forth in Table 7 (peptide set 2) to the mouse monoclonal antibodies (PO# series) was assessed as follows: b) Assay 2 (radioimrnunoassay, RIA) using iodinated human inhibin A as tracer. Mabs (at an appropriate dilution, see above) were incubated with iodinated human recombinant inhibin in the presence of biotinylated peptides (0.8 and 0.08 micromoles/L final concentration) overnight at room temperature.

R1 [9] = assay: RIA of Set 2 peptides with R1; assay type: binding, mouse; set-up: key: ΦΦΦ strong effect; +, Φ weak effect; a) limited binding; details: Set 2 biotinylated peptides 0.8 and 0.08 micromoles/L
Procedure: as §3

[10] = biotinylated peptides, 50% fall in binding of iodinated inhibin
[11] = non-biotinylated peptides, hr-inhibin A as standard

SGSG WSPSALRLLQRPPE [Peptide 5]
#128 Antibody screen Assay 1 (As #128 [1]): + | As#41 ED50 (As #41 [2]; [10]): 15 pM | cross-reaction with hr-inhibin for As #41 in RIA (As #41 [2]; in words): cross-reacted strongly | ED50 values As#41 (As #41 [2]; [11]): 0.0004 µM | As#1989 ED50 (As #1989; [10]): >2.5 µM | ED50 values As#1989 (As #1989; [11]): >10 µM | blocking of As #41 binding to the inhibin-As#128 complex (As #41 [3]): 50% | suppression in binding with As #128 (As #128 [4]): 65% | inhibition with biotinylated #41 pre-incubated with peptide (As #41 [5]): 50% | binding in the absence of inhibin (As#41): significant binding | R1 SPB (R1 [6]): + | PO-6 SPB (PO-6): +++ | PO-22 SPB (PO-22 [7]): +++ | PO-22 RIA (PO-22 [8]): ΦΦ | R1 RIA (R1 [9]): ΦΦΦ
